Data set [1] relates to INS1. Kind of data set: Induction of rat INS1 cells regeneration incubated for 24 hrs by CCK8 assay. In kind it is functional, cell-based.
Data set [2] is described as follows: Acute toxicity in Swiss albino mouse assessed as effect on mortality up to 2000 mg/kg, po administered for 14 days. The settings on record: in vivo, 336 h, time 14 day. In kind it is organism-based.
The nature of data set [3]: AUC in Swiss albino mouse plasma at 0.2 mmol/Kg, po measured after 24 hrs by HPLC analysis. Type of data set: ADME, organism-based. The arrangement: dose 0.2 mmol/Kg, time 24 hrs, route po. The following applies: in vivo.
Data set [4] in a line: Acute toxicity in Swiss albino mouse assessed as effect on behavioural change up to 2000 mg/kg, po administered for 14 days. In kind it is organism-based. The settings on record: in vivo, 336 h, time 14 day.
A short description of data set [5]: Cytotoxicity against human HCN-1A cells assessed as cell growth inhibition. In kind it is toxicity, cell-based.
Data set [6] addresses T1, Sodium/glucose cotransporter 2 (Homo sapiens) (UniProt P31639).
T1 sequence (whole entry): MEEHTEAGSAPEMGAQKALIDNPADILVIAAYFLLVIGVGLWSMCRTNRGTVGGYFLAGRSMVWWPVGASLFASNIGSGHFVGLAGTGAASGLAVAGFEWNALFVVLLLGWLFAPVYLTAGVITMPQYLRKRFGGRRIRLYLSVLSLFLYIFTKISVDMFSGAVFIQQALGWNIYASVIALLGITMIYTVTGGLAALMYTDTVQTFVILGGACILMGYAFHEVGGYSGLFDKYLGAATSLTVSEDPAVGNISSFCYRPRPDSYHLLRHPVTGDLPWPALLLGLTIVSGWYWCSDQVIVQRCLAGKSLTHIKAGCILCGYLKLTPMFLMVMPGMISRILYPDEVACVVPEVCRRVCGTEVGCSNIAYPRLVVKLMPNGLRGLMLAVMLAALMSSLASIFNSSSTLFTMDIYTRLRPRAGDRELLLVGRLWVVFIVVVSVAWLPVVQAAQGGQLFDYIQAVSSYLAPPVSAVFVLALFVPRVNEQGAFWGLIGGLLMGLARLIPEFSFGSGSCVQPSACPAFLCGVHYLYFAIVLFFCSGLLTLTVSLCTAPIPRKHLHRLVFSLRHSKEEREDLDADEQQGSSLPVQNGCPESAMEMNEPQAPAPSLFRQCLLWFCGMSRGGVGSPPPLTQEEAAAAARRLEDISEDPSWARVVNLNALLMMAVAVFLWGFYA
Kind of data set: Inhibition of human SGLT2 by liquid scintillation counter analysis relative to canagliflozin. The following applies: concentration not given here.

The nature of data set [7]: Toxicity in high fat diet-STZ-induced diabetic Swiss albino mouse model assessed as changes in body weight at 0.2 mmol/Kg/day, po administered for 14 days (reference value: 26.6 to 27.8 g). The settings on record: in vivo, 336 h, time 14 day. In kind it is organism-based.
The nature of data set [8]: Tmax in Swiss albino mouse plasma at 0.2 mmol/Kg, po measured after 24 hrs by HPLC analysis. In kind it is ADME, organism-based.
In data set [9] the test system is Mus musculus. Nature of the data set: Antidiabetic activity against high fat diet-STZ-induced diabetic Swiss albino mouse model assessed as induction of beta cell regeneration in pancreas at 0.2 mmol/kg/day, po administered for 14 days by haematoxylin and eosin staining based analysis. Type of data set: functional, organism-based. The settings on record: Pancreatic beta cell, time 14.0 day.

The target in another data set is T2, Alpha amylase (Homo sapiens, UniProt P0DUB6).
T2 sequence (P0DUB6 whole entry): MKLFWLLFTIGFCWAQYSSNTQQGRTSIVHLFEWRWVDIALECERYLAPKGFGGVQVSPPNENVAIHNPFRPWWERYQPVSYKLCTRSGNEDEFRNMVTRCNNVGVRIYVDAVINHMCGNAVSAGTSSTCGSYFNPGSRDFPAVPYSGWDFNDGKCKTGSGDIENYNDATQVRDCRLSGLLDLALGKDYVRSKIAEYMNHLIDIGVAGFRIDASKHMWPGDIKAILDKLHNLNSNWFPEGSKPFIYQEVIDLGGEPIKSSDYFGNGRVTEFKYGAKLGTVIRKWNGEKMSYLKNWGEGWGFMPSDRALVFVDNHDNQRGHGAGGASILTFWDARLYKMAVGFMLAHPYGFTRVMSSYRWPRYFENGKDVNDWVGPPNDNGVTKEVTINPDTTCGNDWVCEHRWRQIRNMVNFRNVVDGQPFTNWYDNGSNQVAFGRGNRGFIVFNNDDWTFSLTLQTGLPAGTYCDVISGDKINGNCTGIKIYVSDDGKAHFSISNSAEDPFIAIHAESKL
Nature of the data set: Inhibition of alpha amylase (unknown origin) measured after 20 to 25 mins.

Data set [10] relates to voltage dependent L/T-type calcium channel. Kind of data set: Inhibition of voltage dependent L/T-type calcium channel in human SH-SY5Y cells. The following applies: SH-SY5Y cells.
The subject of data set [11] is INS1. Kind of data set: Induction of apoptosis in rat INS1 cells assessed as early apoptotic cells at 1 uM incubated for 36 hrs by Annexin V-FITC/ propidium iodide staining based flow cytometry analysis (reference value: 0.34%). Type of data set: functional.
Data set [12] in a line: Cytotoxicity against human THLE-2 cells assessed as cell growth inhibition at 10 uM relative to control. In kind it is toxicity, cell-based. The following applies: read-out: GI.
Data set [13] can be described thus: Cytotoxicity against human HCN-1A cells assessed as cell growth inhibition at 10 uM relative to control. In kind it is toxicity, cell-based. The following applies: read-out: GI.
In data set [14] the test system is INS1. Kind of data set: Induction of apoptosis in rat INS1 cells assessed as necrotic cells at 1 uM incubated for 36 hrs by Annexin V-FITC/ propidium iodide staining based flow cytometry analysis (reference value: 1.15%). In kind it is functional. In general terms: Flow cytometry measures light scatter and fluorescence of single cells or particles in a stream.

The test system of data set [15] is Mus musculus. Kind of data set: Antidiabetic activity against high fat diet-STZ-induced diabetic Swiss albino mouse model assessed as insulin resistance by measuring serum TNFalpha level at 0.2 mmol/Kg/day, po administered for 14 days by ELISA method (reference value: 376.50+/-14.50 ng/ml). In kind it is functional. The following applies: time 14 day. (In general: ELISA stands for enzyme-linked immunosorbent assay.)

Each structure is given as a SMILES string. The source made the active and inactive calls. No cut-off for these calls is given here.

Broadly, the AUC is concentration integrated over time. Low values mean low exposure, high ones high exposure. What is called GI50 is the concentration at which growth is held to half of that of the control. Usually Tmax stands for the time at which the peak concentration occurs. What is called IC50 is the concentration that inhibits the measured activity by half. On to `CCOC(=O)C1=C(C)NC(C)=C(C(=O)OCC)C1c1cccc2c1OCO2`, for which the Activity entry with INS1 [1] was “Dose-Dependent Effect”; in data set [2], “Non-Toxic”; in data set [4], “Non-Toxic”; in [7] it was 26.9 g; in the data set with INS1 [11], 0.27%; in the data set with INS1 [14], 1.46%. In the data set on Mus musculus [15], the Activity was 415.5 ng/mL. The same compound returned an AUC in data set [3] of 36.7 ng·h/mL. Besides, the GI50 in data set [5] stood at 28.7 µM. The inhibition in data set [6] is below 1%. In addition, the time of peak concentration (Tmax) in [8] came out at 48 min. In addition, in the data set with Mus musculus [9], the result was Active. Moreover, the results for the IC50 (on Alpha amylase; in data set [10]) were 17.32 µM and 16.5 µM, respectively. The inhibition at 10 µM was 18.3% in data set [12] and 33.1% in data set [13].

Source of the values: ChEMBL document CHEMBL5316297, “Mechanistic Insight of Synthesized 1,4-Dihydropyridines as an Antidiabetic Sword against Reactive Oxygen Species” (J Med Chem, 2023).
